In US5994336A, “Method of inhibiting proliferation of cells by administering an aminosterol compound” (priority 1995, dated 1999):
Entries after “also recorded” stand apart in the source; their conditions may differ.

Experiments:
[1] = tested on: human microvascular cells; assay: Inhibition of endothelial cell cord formation in vitro; format: cell-based; details: words
Excerpt: Endothelial cells have the capacity in vitro to form tubular aggregates resembling capillaries in various early stages of formation. This conversion occurs under relatively specific conditions, in which essential growth factors along with an effective substratum are provided. It has been shown that both the interaction of growth factors with the endothelial cell and its attachment to a substratum activate the NHE. The activation of this exchanger is believed to be required for subsequent morphologic transformation of the endothelial cell into a multicellular tubular structure.
To assess the effect of compounds on the cord-like structures formed by human microvascular cells when plated in the presence of VEGF (Vascular Endothelial Growth Factor) and basic fibroblast growth factor on a collagen matrix, a standard cord formation assay was used.

[2] = tested on: human foreskin fibroblasts; assay: Growth inhibition in vitro (absorbance at 600 nm); format: cell-based; details: 10 μg/ml; FIG. 3C
B16 melanoma [3] = assay: Suppression of growth of B16 melanoma in C57B mice; format: in vivo, mouse
Protocol: The growth of B16 melanoma in C57B mice is dependent upon neovascularization.
Using the growth of B16 melanoma cells in C57B mice, a recognized model for the evaluation of inhibitors of angiogenesis on the growth of cancers, the effects of subcutaneous, intraperitoneal and oral administration of squalamine were evaluated.

[4] = tested on: bovine pulmonary endothelial cells; assay: Growth inhibition in vitro (absorbance at 600 nm); format: cell-based; details: 1 μg/ml; FIG. 3A
[5] = tested on: bacteria, fungi and protozoa; details: cited from earlier work
rabbit NHE3 = target: T1, rabbit NHE3 (Oryctolagus cuniculus, UniProt P26432); format: cell-based
T1 construct: BCECF internal pH recovery

B16 melanoma [6] = assay: Synergistic inhibition of tumor growth, B16 melanoma model; format: in vivo, mouse; details: squalamine alone
Protocol: Based on the idea that tumor growth involves both the clonal expansion of a malignant cell along with the development of a supporting vascular supply, a combination of compound 1436 with squalamine was tested to determine whether it would achieve a synergistic effect on solid tumor growth. This concept was evaluated in the B16 melanoma model.
Animals were implanted with B16 melanoma followed by treatment with compound 1436 or 1256 administered in a combined schedule or separately. […] Thus, a combination of these two compounds achieves a therapeutic benefit in tumors dependent on neovascularization that may prevent metastatic spread.

[7] = tested on: Xenopus tadpole, stage 59-60; assay: Tadpole assay; format: in vivo, Xenopus laevis; details: 10 μg/ml; for pharmacological response in tadpole (words): stage 59-60
Excerpt: For example, substances that destroy all of the animal's epithelium, both adult and embryonic, could be regarded as toxic.
The volume of liquid is sufficient for the animal to swim freely and drink from the solution. […] If the volume of liquid is not sufficient to permit oral intake, the effects that are observed would result from absorption through the surface epithelium.
In another embodiment of this assay, a solution of a compound in water can be injected directly into the abdomen of the animal using standard techniques.
After an amount of time, typically about 60 minutes, the occlusion of blood flow through capillaries in the tadpole's tail are observed under an inverted microscope at a magnification of roughly 100×.
In the assay, each of the steroids was dissolved in 100 ml of distilled water at a concentration of 10 μg/ml. Stage 59-60 Xenopus tadpoles were introduced and evaluated by light microscopy and gross observation 1 hour later.

vitelline capillaries = assay: Chick embryo vitelline capillary regression assay; format: in vivo; parameters: key to vascular reactivity: +: Vascular reactivity; 0: No vascular reactivity; +/-: Equivocal reactivity; details: for vascular reactivity: 60 minutes
Protocol: Using the chick embryo vitelline capillaries assay, compounds were tested for their ability to induce capillary regression. Each compound was applied in 0.1 ml of 15% Ficol 400 and PBS onto the embryo, and vascular regression was assessed after 60 minutes.
The 3-day chick embryo consists of an embryonic disc from which numerous vessels emerge and return, forming a "FIG. 8"-shaped structure--the embryo in the center with vascular loops extending outward over both poles. […] Following a lag period of around 15 minutes, the constriction of continuity between capillary and secondary vessels, generally on the "venous" side, was observed. Continued pulsatile blood flow progressed, resulting in a "swelling" of the blind tube, followed by a pinching off of the remaining connection and formation of an enclosed vascular sac resembling a "blood island." This process progressed until only the largest vessels remained intact.

[8] = tested on: VX2 carcinoma-induced corneal neovascularization; assay: Suppression of tumor-induced corneal neovascularization in rabbits; format: in vivo, rabbit; details: ELVAX 40 P pellet, day 21
Excerpt: The implantation of VX2 carcinoma into the rabbit cornea results in the induction of new blood vessels within several days (Tamargo et al., Cancer Research 51, 1991, 672-675). It is believed that this carcinoma secretes growth factors that stimulate new blood-vessel growth. Thus, this model is indicative in vivo evidence of therapeutic utility in the treatment of pathological disorders of vascularization, including the metastatic spread of tumors, diabetic retinopathy, macular degeneration, and rheumatoid arthritis.
This experiment followed the published protocol--tumor was implanted adjacent to a polymer containing a concentration of the agent to be evaluated. The polymer releases the agent slowly in the immediate neighborhood of the tumor, providing sustained high local concentrations of the agent. In this experiment, squalamine introduced into a pellet of ELVAX 40 P (DuPont, Wilmington, Del.) inhibited new blood vessel formation by about 60% at days 7 and 14, and by about 25% at day 21.

B16 = assay: Cytostatic activity against B16 in culture; format: cell-based, murine; details: except at very high concentrations
[9] = tested on: human coronary artery smooth muscle; assay: Proliferation of human coronary artery smooth muscle in vitro; format: cell-based; details: FIG. 15
Excerpt: Aminosterols of the invention may also have utility in inhibiting the growth factor mediated proliferation of smooth muscle within the artery. Following coronary angioplasty, reocclusion commonly occurs, secondary to reparative proliferation of the vascular smooth muscle within the wall of the surgically manipulated blood vessel. This process generally takes place over the course of 7-10 days. To evaluate whether an agent could prevent the growth factor mediated proliferation of smooth muscle within the artery, compound 1436 was evaluated in vitro for its effect on the proliferation of human coronary artery smooth muscle. Results for compound 1436 are shown in FIG. 13, and those for squalamine are shown in FIG. 14, with FIG. 15 being a composite logarithmic plot.

[10] = listed as Compound 1256 (Squalamine)

T1 sequence (P26432 30-832): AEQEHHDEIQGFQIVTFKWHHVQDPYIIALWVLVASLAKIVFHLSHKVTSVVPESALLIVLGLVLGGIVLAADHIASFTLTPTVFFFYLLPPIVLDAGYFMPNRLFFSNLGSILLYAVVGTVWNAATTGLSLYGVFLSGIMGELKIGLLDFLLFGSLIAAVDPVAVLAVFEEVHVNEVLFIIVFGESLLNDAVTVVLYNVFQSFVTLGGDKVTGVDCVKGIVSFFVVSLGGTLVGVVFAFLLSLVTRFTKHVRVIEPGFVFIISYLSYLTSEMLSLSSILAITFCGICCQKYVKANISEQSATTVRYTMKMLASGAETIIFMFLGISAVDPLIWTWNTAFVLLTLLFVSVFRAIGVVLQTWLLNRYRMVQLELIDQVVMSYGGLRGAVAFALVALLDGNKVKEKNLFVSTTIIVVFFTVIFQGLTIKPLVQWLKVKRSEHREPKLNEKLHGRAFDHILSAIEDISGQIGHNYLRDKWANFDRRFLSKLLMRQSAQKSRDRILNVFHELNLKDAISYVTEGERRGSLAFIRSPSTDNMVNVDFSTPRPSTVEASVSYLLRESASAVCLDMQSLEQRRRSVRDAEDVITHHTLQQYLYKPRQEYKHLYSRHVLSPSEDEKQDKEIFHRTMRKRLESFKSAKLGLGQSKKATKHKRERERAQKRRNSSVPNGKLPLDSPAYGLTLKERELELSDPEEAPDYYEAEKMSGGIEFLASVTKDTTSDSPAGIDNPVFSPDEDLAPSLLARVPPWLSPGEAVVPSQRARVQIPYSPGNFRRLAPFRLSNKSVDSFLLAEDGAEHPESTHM

## CC(C)[C@@H](CC[C@@H](C)[C@H]1CC[C@H]2[C@@H]3[C@H](O)C[C@H]4C[C@@H](NCCCNCCCCN)CC[C@]4(C)[C@H]3CC[C@]12C)OS(=O)(=O)O [squalamine]
[1]
  effect on cell viability or proliferation at cord-inhibiting concentrations: does not appear to profoundly affect cell viability or proliferation
[2]
  growth of fibroblast line: no effect
B16 melanoma [3]; B16-bearing mice
  body weight and hematologic parameters: no significant depression
B16 melanoma [3]; intraperitoneal, FIGS. 4B, 4B-1
  suppression of tumor volume: dose-dependent suppression of tumor volume
B16 melanoma [3]; oral, FIGS. 4C, 4C-1
  suppression of tumor volume: dose-dependent suppression of tumor volume
B16 melanoma [3]; subcutaneous, FIGS. 4A, 4A-1
  suppression of tumor volume: dose-dependent suppression of tumor volume
[4]
  growth of bovine pulmonary endothelial cells: inhibited the growth
[5]
  antibiotic spectrum: broad-spectrum antibiotic, killing bacteria, fungi and protozoa
Rabbit NHE3; 5 μg/ml, cells not acid-preloaded, FIG. 1B
  resting internal pH: the resting pH of these cells was also inhibited
Rabbit NHE3; squalamine 5 μg/ml, FIGS. 1A, 1B
  inhibition of NHE3, effect on Km and Vmax: inhibited NHE3 with respect to proton concentration at both Km and Vmax levels
Rabbit NHE3; words
  inactivation of exchanger compared with amiloride: more profoundly inactivated by squalamine than by amiloride
  specificity NHE3 over NHE1: specificity for NHE3 over NHE1
B16 melanoma [6]; 5 mg/kg/day, FIG. 12
  impact on tumor volume: no significant impact on tumor volume
B16 melanoma [6]; 15 mg/kg/day
  effect compared with combination: Neither administration of squalamine at 15 mg/kg/day nor compound 1436 alone in a tolerable schedule could achieve this effect
[7]
  tissues or functions not affected in tadpole: unaltered blood flow through the fine capillaries of the hands and feet
  pharmacological response in tadpole (words): blood flow through the capillaries of the tail shut down; also recorded: common vascular occlusive effect
[7]; [10]
  pharmacological response in tadpole (words): Vascular occlusion in fine capillaries of tail
  tissues or functions not affected in tadpole: No effect on vascular flow through hands or feet
Vitelline capillaries
  activity on vitelline capillaries: especially active
Vitelline capillaries; 0.001 μg applied
  vascular reactivity: 0
Vitelline capillaries; 0.01 μg applied
  vascular reactivity: +
Vitelline capillaries; 0.1 μg applied
  vascular reactivity: +
Vitelline capillaries; 1 μg applied
  vascular reactivity: +
Vitelline capillaries; 10 μg applied
  vascular reactivity: +
Vitelline capillaries; 3- to 5-day chick embryos
  disruption of vitelline capillaries: found to disrupt vitelline capillaries
Vitelline capillaries; 3-day chick embryo
  lag period before capillary constriction: around 15 minutes
Vitelline capillaries; chick embryo, microscopic observation
  hemolysis: absence of hemolysis
[8]
  inhibition of new blood vessel formation: about 25%
B16
  cytostatic activity against B16 in culture: minimal cytostatic activity
[9]
  suppression of growth in vitro: suppress in vitro the growth of human coronary artery smooth muscle
